# Source: ChEMBL document CHEMBL2016493, “Design, synthesis, synergistic antimicrobial activity and cytotoxicity of 4-aryl substituted 3,4-dihydropyrimidinones of curcumin” (Bioorg Med Chem Lett, 2012)
# The source made the active and inactive calls. No cut-off for these calls is given here.
# Key:
# Escherichia coli [1] = assay: Antibacterial activity against Escherichia coli ATCC 35218 at 160 uM/ml after 24 hrs by kirby-bauer method; assay type: functional; conditions: ATCC 35218, 24 h, read-out: IZ
# Escherichia coli [2] = assay: Antibacterial activity against Escherichia coli ATCC 35218 at 80 uM/ml after 24 hrs by kirby-bauer method; assay type: functional; conditions: ATCC 35218, 24 h, read-out: IZ
# Escherichia coli [3] = assay: Antibacterial activity against Escherichia coli ATCC 35218 at 40 uM/ml after 24 hrs by kirby-bauer method; assay type: functional; conditions: for zone of inhibition at 40 µM: ATCC 35218, 24 h, read-out: IZ
# Escherichia coli [4] = assay: Antibacterial activity against Escherichia coli ATCC 35218 at 20 uM/ml after 24 hrs by kirby-bauer method; assay type: functional; conditions: for zone of inhibition at 20 µM: ATCC 35218, 24 h, read-out: IZ
# [5] = system: Burkholderia pseudomallei; assay: Antibacterial activity against Burkholderia pseudomallei NTCC 10274 at 160 uM/ml after 24 hrs by kirby-bauer method; assay type: functional; conditions: NTCC 10274, 24 h, read-out: IZ
# [6] = system: Burkholderia pseudomallei; assay: Antibacterial activity against Burkholderia pseudomallei NTCC 10274 at 80 uM/ml after 24 hrs by kirby-bauer method; assay type: functional; conditions: NTCC 10274, 24 h, read-out: IZ
# [7] = system: Burkholderia pseudomallei; assay: Antibacterial activity against Burkholderia pseudomallei NTCC 10274 at 40 uM/ml after 24 hrs by kirby-bauer method; assay type: functional; conditions: for zone of inhibition at 40 µM: NTCC 10274, 24 h, read-out: IZ
# [8] = system: Burkholderia pseudomallei; assay: Antibacterial activity against Burkholderia pseudomallei NTCC 10274 at 20 uM/ml after 24 hrs by kirby-bauer method; assay type: functional
# Pseudomonas aeruginosa [9] = assay: Antibacterial activity against Pseudomonas aeruginosa ATCC 15499 at 160 uM/ml after 24 hrs by kirby-bauer method; assay type: functional; conditions: ATCC 15499, 24 h, read-out: IZ
# Pseudomonas aeruginosa [10] = assay: Antibacterial activity against Pseudomonas aeruginosa ATCC 15499 at 80 uM/ml after 24 hrs by kirby-bauer method; assay type: functional; conditions: for zone of inhibition at 80 µM: ATCC 15499, 24 h, read-out: IZ
# Pseudomonas aeruginosa [11] = assay: Antibacterial activity against Pseudomonas aeruginosa ATCC 15499 at 40 uM/ml after 24 hrs by kirby-bauer method; assay type: functional; conditions: for zone of inhibition at 40 µM: ATCC 15499, 24 h, read-out: IZ
# Pseudomonas aeruginosa [12] = assay: Antibacterial activity against Pseudomonas aeruginosa ATCC 15499 at 20 uM/ml after 24 hrs by kirby-bauer method; assay type: functional; conditions: for zone of inhibition at 20 µM: ATCC 15499, 24 h, read-out: IZ
# Salmonella typhimurium [13] = assay: Antibacterial activity against Salmonella typhimurium ATCC 23564 at 160 uM/ml after 24 hrs by kirby-bauer method; assay type: functional; conditions: for inhibition zone (IZ): Salmonella enterica subsp. enterica serovar Typhimurium
# Staphylococcus aureus = assay: Antibacterial activity against Staphylococcus aureus ATCC 11632 at 160 uM/ml after 24 hrs by kirby-bauer method; assay type: functional
# Aspergillus niger [14] = assay: Antifungal activity against Aspergillus niger MTCC 1108 at 160 uM/ml after 48 hrs by paper disc diffusion method; assay type: functional; conditions: MTCC 1108, 48 h, read-out: IZ
# Aspergillus niger [15] = assay: Antifungal activity against Aspergillus niger MTCC 1108 at 80 uM/ml after 48 hrs by paper disc diffusion method; assay type: functional; conditions: MTCC 1108, 48 h, read-out: IZ
# Aspergillus niger [16] = assay: Antifungal activity against Aspergillus niger MTCC 1108 at 40 uM/ml after 48 hrs by paper disc diffusion method; assay type: functional
# Aspergillus niger [17] = assay: Antifungal activity against Aspergillus niger MTCC 1108 at 20 uM/ml after 48 hrs by paper disc diffusion method; assay type: functional
# Aspergillus flavus [18] = assay: Antifungal activity against Aspergillus flavus MTCC 1021 at 160 uM/ml after 48 hrs by paper disc diffusion method; assay type: functional; conditions: for zone of inhibition at 160 µM: MTCC 1021, 48 h, read-out: IZ
# Aspergillus flavus [19] = assay: Antifungal activity against Aspergillus flavus MTCC 1021 at 80 uM/ml after 48 hrs by paper disc diffusion method; assay type: functional
# Aspergillus flavus [20] = assay: Antifungal activity against Aspergillus flavus MTCC 1021 at 40 uM/ml after 48 hrs by paper disc diffusion method; assay type: functional
# Aspergillus flavus [21] = assay: Antifungal activity against Aspergillus flavus MTCC 1021 at 20 uM/ml after 48 hrs by paper disc diffusion method; assay type: functional
# Curvularia lunata [22] = assay: Antifungal activity against Curvularia lunata MTCC 581 at 160 uM/ml after 48 hrs by paper disc diffusion method; assay type: functional; conditions: MTCC 581, 48 h, read-out: IZ
# Curvularia lunata [23] = assay: Antifungal activity against Curvularia lunata MTCC 581 at 80 uM/ml after 48 hrs by paper disc diffusion method; assay type: functional; conditions: MTCC 581, 48 h, read-out: IZ
# Curvularia lunata [24] = assay: Antifungal activity against Curvularia lunata MTCC 581 at 40 uM/ml after 48 hrs by paper disc diffusion method; assay type: functional; conditions: MTCC 581, 48 h, read-out: IZ
# Curvularia lunata [25] = assay: Antifungal activity against Curvularia lunata MTCC 581 at 20 uM/ml after 48 hrs by paper disc diffusion method; assay type: functional; conditions: MTCC 581, 48 h, read-out: IZ
# Trichoderma viride [26] = assay: Antifungal activity against Trichoderma viride MTCC 1107 at 160 uM/ml after 48 hrs by paper disc diffusion method; assay type: functional; conditions: MTCC 1107, 48 h, read-out: IZ
# Trichoderma viride [27] = assay: Antifungal activity against Trichoderma viride MTCC 1107 at 80 uM/ml after 48 hrs by paper disc diffusion method; assay type: functional; conditions: MTCC 1107, 48 h, read-out: IZ
# Trichoderma viride [28] = assay: Antifungal activity against Trichoderma viride MTCC 1107 at 40 uM/ml after 48 hrs by paper disc diffusion method; assay type: functional; conditions: for zone of inhibition: MTCC 1107, 48 h, read-out: IZ
# Trichoderma viride [29] = assay: Antifungal activity against Trichoderma viride MTCC 1107 at 20 uM/ml after 48 hrs by paper disc diffusion method; assay type: functional; conditions: for zone of inhibition at 20 µM: MTCC 1107, 48 h, read-out: IZ
# QG-56 = assay: Cytotoxicity against human QG56 cells after 48 hrs by MTT assay; assay type: functional, cell-based
# Salmonella typhimurium [30] = assay: Antibacterial activity against Salmonella typhimurium ATCC 23564 at 80 uM/ml after 24 hrs by kirby-bauer method; assay type: functional, Salmonella enterica subsp. enterica serovar Typhimurium; conditions: Salmonella enterica, ATCC 23564, 24 h; read-out: IZ
# Salmonella typhimurium [31] = assay: Antibacterial activity against Salmonella typhimurium ATCC 23564 at 40 uM/ml after 24 hrs by kirby-bauer method; assay type: functional; conditions: Salmonella enterica subsp. enterica serovar Typhimurium
# Salmonella typhimurium [32] = assay: Antibacterial activity against Salmonella typhimurium ATCC 23564 at 20 uM/ml after 24 hrs by kirby-bauer method; assay type: functional; conditions: Salmonella enterica subsp. enterica serovar Typhimurium
SMILES,zone of inhibition at 160 µM (Escherichia coli [1]) [mm],zone of inhibition at 80 µM (Escherichia coli [2]) [mm],zone of inhibition at 40 µM (Escherichia coli [3]) [mm],zone of inhibition at 20 µM (Escherichia coli [4]) [mm],zone of inhibition at 160 µM [5] [mm],zone of inhibition at 80 µM [6] [mm],zone of inhibition at 160 µM (Pseudomonas aeruginosa [9]) [mm],inhibition zone (IZ) (Staphylococcus aureus),zone of inhibition at 160 µM (Aspergillus niger [14]) [mm],zone of inhibition at 80 µM (Aspergillus niger [15]) [mm],inhibition zone (IZ) (Aspergillus niger [17]),zone of inhibition at 160 µM (Curvularia lunata [22]) [mm],zone of inhibition at 80 µM (Curvularia lunata [23]) [mm],zone of inhibition at 40 µM (Curvularia lunata [24]) [mm],zone of inhibition at 20 µM (Curvularia lunata [25]) [mm],zone of inhibition at 160 µM (Trichoderma viride [26]) [mm],zone of inhibition at 80 µM (Trichoderma viride [27]) [mm],IC50 (QG-56) [uM/ml],IC50 (HepG2) [uM/ml],IC50 (HCT-116) [uM/ml],further results
COc1cc(/C=C/C(=O)C2=C(/C=C/c3ccc(O)c(OC)c3)NC(=S)NC2c2ccccc2)ccc1O (centres undefined),21,18,14,12,18,16,18,inactive,16,14,inactive,26,23,21,18,24,21,50,50,100,"zone of inhibition at 40 µM [7]: 13 mm; zone of inhibition at 20 µM ([8]; NTCC 10274, 24 h, read-out: IZ): 11 mm; zone of inhibition at 80 µM (Pseudomonas aeruginosa [10]): 17 mm; zone of inhibition at 40 µM (Pseudomonas aeruginosa [11]): 14 mm; zone of inhibition at 20 µM (Pseudomonas aeruginosa [12]): 12 mm; inhibition zone (IZ) (Salmonella typhimurium [13]): inactive; inhibition zone (IZ) (Aspergillus niger [16]): inactive; zone of inhibition at 160 µM (Aspergillus flavus [18]): 9 mm; inhibition zone (IZ) (Aspergillus flavus [19]): inactive; inhibition zone (IZ) (Aspergillus flavus [20]): inactive; inhibition zone (IZ) (Aspergillus flavus [21]): inactive; zone of inhibition (Trichoderma viride [28]): 21 mm; zone of inhibition at 20 µM (Trichoderma viride [29]): 18 mm"
COc1cc(/C=C/C(=O)C2=C(/C=C/c3ccc(O)c(OC)c3)NC(=O)NC2c2ccccc2O)ccc1O (centres undefined),22,19,18,15,19,13,24,inactive,13,11,inactive,23,21,20,17,11,9,100,100,100,"zone of inhibition at 40 µM [7]: 11 mm; inhibition zone (IZ) [8]: inactive; zone of inhibition at 80 µM (Pseudomonas aeruginosa [10]): 21 mm; zone of inhibition at 40 µM (Pseudomonas aeruginosa [11]): 19 mm; zone of inhibition at 20 µM (Pseudomonas aeruginosa [12]): 18 mm; inhibition zone (IZ) (Salmonella typhimurium [13]): inactive; zone of inhibition at 40 µM (Aspergillus niger [16]; MTCC 1108, 48 h, read-out: IZ): 9 mm; zone of inhibition at 160 µM (Aspergillus flavus [18]): 9 mm; inhibition zone (IZ) (Aspergillus flavus [19]): inactive; inhibition zone (IZ) (Aspergillus flavus [20]): inactive; inhibition zone (IZ) (Aspergillus flavus [21]): inactive; inhibition zone (IZ) (Trichoderma viride [28]): inactive; inhibition zone (IZ) (Trichoderma viride [29]): inactive"
COc1cc(/C=C/C(=O)C2=C(/C=C/c3ccc(O)c(OC)c3)NC(=O)NC2c2ccc(C)cc2)ccc1O (centres undefined),11,9,,,10,9,10,inactive,12,9,inactive,22,18,16,12,18,16,100,50,50,"inhibition zone (IZ) (Escherichia coli [3]): inactive; inhibition zone (IZ) (Escherichia coli [4]): inactive; inhibition zone (IZ) [7]: inactive; inhibition zone (IZ) [8]: inactive; inhibition zone (IZ) (Pseudomonas aeruginosa [10]): inactive; inhibition zone (IZ) (Pseudomonas aeruginosa [11]): inactive; inhibition zone (IZ) (Pseudomonas aeruginosa [12]): inactive; zone of inhibition at 160 µM (Salmonella typhimurium [13]; Salmonella enterica, ATCC 23564, 24 h, read-out: IZ): 11 mm; zone of inhibition at 80 µM (Salmonella typhimurium [30]): 9 mm; inhibition zone (IZ) (Salmonella typhimurium [31]): inactive; inhibition zone (IZ) (Salmonella typhimurium [32]): inactive; inhibition zone (IZ) (Aspergillus niger [16]): inactive; inhibition zone (IZ) (Aspergillus flavus [18]): inactive; zone of inhibition (Trichoderma viride [28]): 15 mm; zone of inhibition at 20 µM (Trichoderma viride [29]): 12 mm"
